Seven compounds from US20250333397A1 (REMIX THERAPEUTICS INC., priority 2021, published 2025) can be followed below.

Read-outs that look alike come from different tables or passages of the source.

Holding throughout (format): cell-based, human
Assay [1] deals with Target C mRNA. Put plainly: RT-qPCR splicing assay panel, Target C canonical junction (CJ) mRNA. The conditions noted are these: Homo sapiens, canonical junction (CJ) mRNA, RT-qPCR panel, Table 4A; read-out: Target C, decrease in CJ mRNA levels, IC50. On the procedure: (§1) Compounds described herein were used to modulate RNA transcript abundance in cells. The expression of a target mRNA was measured by detecting the formation of an exon-exon junction in the canonical transcript (CJ). A compound mediated exon-inclusion event was detected by observing an increase in formation of a new junction with an alternative exon (AJ). Real-time qPCR assays were used to detect these splicing switches and interrogate the potency of various compounds towards different target genes. A high-throughput real time quantitative PCR (RT-qPCR) assay was developed to measure these two isoforms of the mRNA (CJ and AJ) for exemplary genes, such as HTT, SMN2, and MYB, together with a control housekeeping gene, GAPDH or GUSB or PPIA, used for normalization. Briefly, the A673 or K562 cell line was treated with various compounds described herein (e.g., compounds of Formula (I), (II), (III), (IV)). After treatment, the levels of the HTT, MYB, or SMN2 mRNA targets were determined from each sample of cell lysate by cDNA synthesis followed by qPCR.
(§2) The A673 cell line was cultured in DMEM with 10% FBS. Cells were diluted with full growth media and plated in a 96-well plate (15,000 cells in 100ul media per well). The plate was incubated at 37° C. with 5% CO2 for 24 hours to allow cells to adhere. An 11-point 3-fold serial dilution of the compounds was made in DMSO then diluted in media in an intermediate plate. Compounds were transferred from the intermediate plate to the cell plate with the top dose at a final concentration of 10 uM in the well. Final DMSO concentration was kept at or below 0.25%. The cell plate was returned to the incubator at 37° C. with 5% CO2 for an additional 24 hours.
(§3) The K562 cell line was cultured in IMDM with 10% FBS. For K562, cells were diluted with full growth media and plated in either a 96-well plate (50,000 cells in 50 uL media per well) or a 384-well plate (8,000-40,000 cells in 45 uL media per well). An 11-point 3-fold serial dilution of the compounds were made in DMSO then diluted in media in an intermediate plate.
(§4) Compound was transferred from the intermediate plate to the cell plate with the top dose at a final concentration of 10 uM in the well. Final DMSO concentration was kept at or below 0.25%.
(§5) Final volume was 100 uL for 96-well plate and 50 uL for 384-well plate. The cell plate was then placed in an incubator at 37° C. with 5% CO2 for 24 hours.
(§6) The cells were then gently washed with 50 uL-100 uL cold PBS before proceeding to addition of lysis buffer. 30 uL-50 μL of room temperature lysis buffer with DNAse I (and optionally RNAsin) was added to each well. Cells were shaken/mixed thoroughly at room temperature for 5-10 minutes for lysis to take place and then 3 uL-5 μL of room temperature stop solution was added and wells were shaken/mixed again. After 2-5 minutes, the cell lysate plate was transferred to ice for RT-qPCR reaction setup. The lysates could also be frozen at −80° C. for later use.
(§7) In some cases, a direct lysis buffer was used. An appropriate volume of 3× lysis buffer (10 mM Tris, 150 mM NaCl, 1.5%-2.5% Igepal and 0.1-1 U/uL RNAsin, pH 7.4) was directly added to either K562 or A673 cells in media and mixed by pipetting 3 times. The plates were then incubated at room temperature with shaking/rocking for 20-50 minutes to allow for lysis to take place. After this time, the cell lysate plate was transferred to ice to set up for the RT-qPCR reactions. The lysates could also be frozen at −80° C. for later use.
(§8) To set up 10 uL RT-qPCR reactions, cell lysates were transferred to 384-well qPCR plates containing the master mix according to the table below. The plates were sealed, gently vortexed, and spun down before the run. The volumes were adjusted accordingly in some instances where the reaction was carried in 20 μL. The table below summarizes the components of the RT-qPCR reactions: […]

The test system of assay [2] is HTT mRNA. Put plainly: RT-qPCR splicing assay, HTT canonical (CJ) and alternative (AJ) junction mRNA. Conditions: Homo sapiens; for AC50: read-out: HTT AJ (AC50, increase in AJ mRNA). On the procedure: as §1, §2, §3, §4, §5, §6, §7, §8
Assay [3] deals with MYB mRNA. In words: RT-qPCR splicing assay, MYB canonical (CJ) and alternative (AJ) junction mRNA. The conditions noted are these: Homo sapiens; for AC50: read-out: MYB AJ (AC50, increase in AJ mRNA). On the procedure: as §1, §2, §3, §4, §5, §6, §7, §8
(In general: Real-time PCR tracks product formation cycle by cycle.)

Assay [4] relates to SMN2 mRNA. Put plainly: RT-qPCR splicing assay panel, SMN2 canonical junction (CJ) mRNA. Conditions: Homo sapiens, canonical junction (CJ) mRNA, RT-qPCR panel, Table 4A; read-out: SMN2, decrease in CJ mRNA levels, IC50. On the procedure: as §1, §2, §3, §4, §5, §6, §7, §8
[5] abbreviates: 24 h, Table 3A, A673 or K562 cells, 24 h treatment.
[6] abbreviates: 24 h, Table 3A, A673 or K562 cells, 24 h treatment, read-out: HTT CJ (IC50, decrease in CJ mRNA).
Setting [7] is: canonical junction (CJ) mRNA, RT-qPCR panel, Table 4A, read-out: HTT, decrease in CJ mRNA levels, IC50.
Where [8] appears, read: 24 h, Table 3A, A673 or K562 cells, 24 h treatment, read-out: MYB CJ (IC50, decrease in CJ mRNA).
Where [9] appears, read: canonical junction (CJ) mRNA, RT-qPCR panel, Table 4A, read-out: MYB, decrease in CJ mRNA levels, IC50.

One may read the IC50 as the concentration that inhibits the measured activity by half. In general, AC50 refers to the midpoint of the concentration-response curve, whichever way the signal moves. On to `COc1cc(-c2cc(O)c(-c3ccc(N4CC[C@H](NC5CC5)C4)nn3)cc2F)cnn1` [Compound 214, 2-{6-[(3S)-3-(cyclopropylamino)pyrrolidin-1-yl]pyridazin-3-yl}-4-fluoro-5-(6-methoxypyridazin-4-yl)phenol], for which the IC50 in assay [1] was 100 to 1000 nM; in assay [2] (setting [6]) it was less than 100 nM; in assay [2] (setting [7]), less than 100 nM; in assay [3] (setting [8]), 100 to 1000 nM; in assay [3] (setting [9]), 100 to 1000 nM; in assay [4], less than 100 nM. Besides, the values for the AC50 in assay [2] (setting [5]) and in assay [3] (setting [5]) were less than 100 nM and 100 to 1000 nM, respectively.

Turning to `CC1(C)CC(Oc2ccc(-c3cc(F)c(-c4cn[nH]c4)cc3O)nn2)CC(C)(C)N1` [Compound 361], the IC50 in assay [1] was less than 100 nM; in assay [2] (setting [6]), less than 100 nM; in assay [2] (setting [7]), less than 100 nM; in assay [3] (setting [8]) it was 100 to 1000 nM; in assay [3] (setting [9]) it was 100 to 1000 nM; in assay [4] it was less than 100 nM. For the same compound, the AC50 in assay [2] (setting [5]) and in assay [3] (setting [5]) was less than 100 nM throughout.

Consider `Cc1cc(-c2ccc(-c3ccc(N4CCC(NC5CCC5)C4)nn3)c(O)c2)cc2cn(C)nc12` (centres unmarked) [Compound 318], for which the IC50 in assay [1] was in the range of 100 to 1000 nM; in assay [2] (setting [6]) it was 100 to 1000 nM; in assay [2] (setting [7]), 100 to 1000 nM; in assay [3] (setting [8]), 1000 to 10000 nM; in assay [3] (setting [9]), 1000 to 10000 nM; in assay [4] it was 100 to 1000 nM. In addition, the AC50 was 100 to 1000 nM in assay [2] (setting [5]) and more than 10000 nM in assay [3] (setting [5]).

With `Cc1ncc(-c2cc(O)c(-c3ccc(N4CCC(NC5CCOC5)C4)nn3)cc2F)s1` (centres unmarked) [Compound 350, 4-fluoro-5-(2-methyl-1,3-thiazol-5-yl)-2-{6-[3-(oxolan-3-ylamino)pyrrolidin-1-yl]pyridazin-3-yl}phenol], the IC50 in assay [1], in assay [2] (setting [6]), in assay [2] (setting [7]), in assay [3] (setting [8]), in assay [3] (setting [9]) and in assay [4] was less than 100 nM each time. Besides, the results for the AC50 in assay [2] (setting [5]) and in assay [3] (setting [5]) were less than 100 nM and 100 to 1000 nM, respectively.

For the compound `COc1cc(-c2ccc(-c3ccc(N4CC[C@@H](N[C@H]5C[C@H](F)C5)C4)nn3)c(O)c2)ncn1` [Compound 427], the IC50 in assay [1] fell in the range of 1000 to 10000 nM; in assay [2] (setting [6]) it was 100 to 1000 nM; in assay [2] (setting [7]) it was 100 to 1000 nM; in assay [3] (setting [8]), 1000 to 10000 nM; in assay [3] (setting [9]), 1000 to 10000 nM; in assay [4] it was 100 to 1000 nM. Further, the AC50 was in the range of 100 to 1000 nM in assay [2] (setting [5]) and 1000 to 10000 nM in assay [3] (setting [5]).

As to `CC1(C)CC(Oc2ncc(-c3cc(F)c(-c4cn[nH]c4)cc3O)nn2)CC(C)(C)N1` [Compound 377], the IC50 in assay [1] is 100 to 1000 nM; in assay [2] (setting [6]), 100 to 1000 nM; in assay [2] (setting [7]) it was 100 to 1000 nM; in assay [3] (setting [8]) it was 1000 to 10000 nM; in assay [3] (setting [9]), 1000 to 10000 nM; in assay [4], 100 to 1000 nM. Further, the AC50 lay within 100 to 1000 nM in assay [2] (setting [5]) and 1000 to 10000 nM in assay [3] (setting [5]).

`COc1cc(-c2ccc(-c3ccc(N4CC[C@](C)(NCC5CC5)C4)nn3)c(O)c2)ncn1` [Compound 376, 2-{6-[(3S)-3-[(cyclopropylmethyl)amino]-3-methylpyrrolidin-1-yl]pyridazin-3-yl}-5-(6-methoxypyrimidin-4-yl)phenol]: the IC50 in assay [1] is 100 to 1000 nM; in assay [2] (setting [6]) it was less than 100 nM; in assay [2] (setting [7]) it was less than 100 nM; in assay [3] (setting [8]), 100 to 1000 nM; in assay [3] (setting [9]), 100 to 1000 nM; in assay [4] it was less than 100 nM. Also, the AC50 in assay [2] (setting [5]) is less than 100 nM; in assay [3] (setting [5]), 100 to 1000 nM.
